Measured values taken from the NIST ThermoML archive (doi:10.1021/acs.jced.5b00562).

Settings: for specific volume: Gas, isochoric method; for mass density: Liquid, Vibrating tube method

F/C=C(\F)C(F)(F)F [(Z)-1,2,3,3,3-pentafluoro-1-propene]
Settings	mass density [kg/m3]	specific volume [m3/kg]
323.15 K, 169.7 kPa	–	0.116
323.15 K, 245.6 kPa	–	0.079
323.15 K, 1296 kPa	1172.9	–
323.15 K, 7500 kPa	1226.8	–
323.15 K, 10001 kPa	1243.3	–
323.15 K, 12499 kPa	1257.6	–
323.15 K, 15000 kPa	1270.8	–
323.15 K, 17499 kPa	1282.9	–
323.15 K, 19999 kPa	1294	–
323.15 K, 22500 kPa	1304.4	–
323.15 K, 25001 kPa	1314.1	–
323.15 K, 27500 kPa	1323.2	–
323.15 K, 30001 kPa	1331.8	–
323.15 K, 32501 kPa	1340	–
323.15 K, 35001 kPa	1347.7	–
323.16 K, 466.1 kPa	–	0.04
323.16 K, 1499 kPa	1175.1	–
323.16 K, 2000 kPa	1180.3	–
323.16 K, 2502 kPa	1185.5	–
323.16 K, 4998 kPa	1207.9	–
328.07 K, 566.8 kPa	–	0.033
328.11 K, 360.1 kPa	–	0.054
328.14 K, 669.2 kPa	–	0.027
328.15 K, 172.6 kPa	–	0.116
328.15 K, 249.7 kPa	–	0.079
328.15 K, 475.1 kPa	–	0.04
333.1 K, 365.4 kPa	–	0.054
333.1 K, 578.2 kPa	–	0.033
333.13 K, 682.7 kPa	–	0.027
333.15 K, 174.9 kPa	–	0.116
333.15 K, 253.9 kPa	–	0.079
333.15 K, 483.9 kPa	–	0.04
333.15 K, 1502 kPa	1124.9	–
333.15 K, 1999 kPa	1132	–
333.15 K, 2500 kPa	1138.6	–
333.15 K, 5000 kPa	1166.8	–
333.15 K, 7500 kPa	1189.4	–
333.15 K, 10000 kPa	1208.6	–
333.15 K, 12500 kPa	1225.4	–
333.15 K, 15000 kPa	1240.4	–
333.15 K, 17500 kPa	1255	–
333.15 K, 20000 kPa	1266.6	–
333.15 K, 22500 kPa	1278.1	–
333.15 K, 25003 kPa	1288.8	–
333.15 K, 27500 kPa	1298.8	–
333.15 K, 29999 kPa	1308.2	–
333.15 K, 32500 kPa	1317.8	–
333.15 K, 35000 kPa	1326.3	–
338.08 K, 589.4 kPa	–	0.033
338.08 K, 696.3 kPa	–	0.027
338.14 K, 371.5 kPa	–	0.054
338.15 K, 177.9 kPa	–	0.116
338.15 K, 257.7 kPa	–	0.079
338.15 K, 492.8 kPa	–	0.04
343.08 K, 600.4 kPa	–	0.033
343.09 K, 377.8 kPa	–	0.054
343.13 K, 710 kPa	–	0.027
343.15 K, 181 kPa	–	0.116
343.15 K, 262.4 kPa	–	0.079
343.15 K, 501.5 kPa	–	0.04
343.15 K, 1800 kPa	1070	–
343.15 K, 2000 kPa	1074.1	–
343.15 K, 2500 kPa	1083.8	–
343.15 K, 5001 kPa	1121.1	–
343.15 K, 7500 kPa	1149.2	–
343.15 K, 10001 kPa	1172	–
343.15 K, 12500 kPa	1191.5	–
343.15 K, 15000 kPa	1208.5	–
343.15 K, 17500 kPa	1223.8	–
343.15 K, 20000 kPa	1237.6	–
343.15 K, 22500 kPa	1250.3	–
343.15 K, 27500 kPa	1273.2	–
343.15 K, 30000 kPa	1283.5	–
343.15 K, 32500 kPa	1293.3	–
343.15 K, 35000 kPa	1302.5	–
343.16 K, 25000 kPa	1262.3	–
348.06 K, 611.4 kPa	–	0.033
348.07 K, 383.7 kPa	–	0.054
348.14 K, 723.7 kPa	–	0.027
348.15 K, 183.8 kPa	–	0.116
348.15 K, 266.6 kPa	–	0.079
348.15 K, 510.2 kPa	–	0.04
353.05 K, 390.1 kPa	–	0.054
353.11 K, 622.8 kPa	–	0.033
353.13 K, 737.3 kPa	–	0.027
353.14 K, 20000 kPa	1209	–
353.15 K, 186.6 kPa	–	0.116
353.15 K, 270.7 kPa	–	0.079
353.15 K, 518.9 kPa	–	0.04
353.15 K, 5000 kPa	1070.7	–
353.15 K, 7500 kPa	1106.5	–
353.15 K, 10000 kPa	1134	–
353.15 K, 12500 kPa	1156.8	–
353.15 K, 15000 kPa	1176.3	–
353.15 K, 17500 kPa	1193.5	–
353.15 K, 22500 kPa	1223	–
353.15 K, 25000 kPa	1235.9	–
353.15 K, 27500 kPa	1247.9	–
353.15 K, 30000 kPa	1259	–
353.15 K, 32502 kPa	1269.4	–
353.16 K, 2500 kPa	1016.9	–
353.16 K, 35001 kPa	1279.2	–
358.11 K, 397.3 kPa	–	0.054
358.15 K, 189.5 kPa	–	0.116
358.15 K, 274.5 kPa	–	0.079
358.15 K, 527.6 kPa	–	0.04
358.15 K, 750.7 kPa	–	0.027
358.17 K, 633.7 kPa	–	0.033
363.13 K, 764 kPa	–	0.027
363.14 K, 278.7 kPa	–	0.079
363.14 K, 644.4 kPa	–	0.033
363.16 K, 192.3 kPa	–	0.116
363.16 K, 536.1 kPa	–	0.04
363.29 K, 404 kPa	–	0.054
368.03 K, 409.8 kPa	–	0.054
368.1 K, 777.4 kPa	–	0.027
368.15 K, 194.3 kPa	–	0.116
368.15 K, 544.7 kPa	–	0.04
368.16 K, 282.9 kPa	–	0.079
368.16 K, 655.3 kPa	–	0.033
